US8389513B2, “2-amino-5,5-difluoro-5,6-dihydro-4H-[1,3]oxazin-4-yl)-phenyl]-amides” (Hoffmann-La Roche Inc., priority 2009, dated 2013)

Experiments:
in vivo effect = settings: po; % of control @ 30 mg/kg p.o.
[1] = target: T1, recombinant human cathepsin E (Homo sapiens, UniProt P14091); assay: Cathepsin E fluorescent substrate kinetic assay; assay type: biochemical; settings: pH 4.5
T1 construct: purchased R&D Systems
T1 sequence (P14091 54-396): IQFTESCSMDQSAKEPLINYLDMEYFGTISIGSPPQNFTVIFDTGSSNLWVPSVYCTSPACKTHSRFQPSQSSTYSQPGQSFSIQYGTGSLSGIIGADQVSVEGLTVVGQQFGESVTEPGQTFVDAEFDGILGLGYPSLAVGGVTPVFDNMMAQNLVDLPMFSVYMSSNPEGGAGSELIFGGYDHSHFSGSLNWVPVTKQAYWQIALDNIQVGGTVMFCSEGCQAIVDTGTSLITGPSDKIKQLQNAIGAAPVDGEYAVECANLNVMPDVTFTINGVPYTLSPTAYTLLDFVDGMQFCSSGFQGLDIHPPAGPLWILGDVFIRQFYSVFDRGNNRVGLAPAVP
Text: (§1) Cathepsin D and Cathepsin E Fluorescent Substrate Kinetic Assays
The MR121 fluorescence assays described below are based on the fact that MR121 forms a non-fluorescent ground state complex with tryptophan. In solution this formation occurs at millimolar concentrations of tryptophan. The mechanism can be used to design a generic biochemical assay for proteases. […] In absence of protease activity, the substrates remain intact and the MR121 fluorescence is reduced by the high local Trp-concentration. If the substrates are cleaved by the enzymes the MR121 fluorescence is recovered.
The fluorescent substrate cathepsin D and cathepsin E kinetic assays were performed at room temperature in 384-well microtiter plates (black with clear flat bottom, non binding surface plates from Corning) in a final volume of 51 μl. The test compounds were serially diluted in DMSO (15 concentrations, 1/3 dilution steps) and 1 μl of diluted compounds were mixed for 10 min with 40 μl of cathepsin D (from human liver, Calbiochem) diluted in assay buffer (100 mM sodium acetate, 0.05% BSA, pH 5.5; final concentration: 200 nM) or with 40 μl of recombinant human cathepsin E (R&D Systems) diluted in assay buffer (100 mM sodium acetate, 0.05% BSA, pH 4.5; final concentration: 0.01 nM). […] The enzymatic reaction was followed in a plate: vision reader (Perkin Elmer) (excitation wavelength: 630 nm; emission: 695 nm) for at least 30 minutes in a kinetic measurement detecting an increase of MR121 fluorescence during the reaction time. The slope in the linear range of the kinetic was calculated and the IC50 of the test compounds were determined using a four parameter equation for curve fitting.

[2] = target: T2, cathepsin D (from human liver) (Homo sapiens, UniProt P07339); assay: Cathepsin D fluorescent substrate kinetic assay; assay type: biochemical; settings: pH 5.5
T2 construct: cathepsin D (from human liver, Calbiochem); purchased Calbiochem; host or cells: human liver
T2 sequence (P07339 65-412): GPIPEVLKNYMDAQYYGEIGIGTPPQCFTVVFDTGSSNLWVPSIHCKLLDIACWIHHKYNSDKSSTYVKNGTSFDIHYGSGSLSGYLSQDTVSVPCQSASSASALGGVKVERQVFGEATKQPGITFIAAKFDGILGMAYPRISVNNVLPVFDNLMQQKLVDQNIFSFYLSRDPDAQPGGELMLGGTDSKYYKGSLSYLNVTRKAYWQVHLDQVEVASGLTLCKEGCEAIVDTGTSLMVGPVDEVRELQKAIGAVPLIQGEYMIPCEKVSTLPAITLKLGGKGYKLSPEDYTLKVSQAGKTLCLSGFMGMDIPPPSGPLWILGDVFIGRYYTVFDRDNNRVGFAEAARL
Text: as §1
The MR121 fluorescence assays described below are based on the fact that MR121 forms a non-fluorescent ground state complex with tryptophan. In solution this formation occurs at millimolar concentrations of tryptophan. The mechanism can be used to design a generic biochemical assay for proteases. A substrate peptide is labeled at the N-terminus with tryptophan and at the C-terminus with the fluorophore MR121 (for cathepsin D the 10 amino acid peptide […]-MR121 was used; for cathepsin E, MR121-[…] was used). In absence of protease activity, the substrates remain intact and the MR121 fluorescence is reduced by the high local Trp-concentration. If the substrates are cleaved by the enzymes the MR121 fluorescence is recovered.
The fluorescent substrate cathepsin D and cathepsin E kinetic assays were performed at room temperature in 384-well microtiter plates (black with clear flat bottom, non binding surface plates from Corning) in a final volume of 51 μl. The test compounds were serially diluted in DMSO (15 concentrations, 1/3 dilution steps) and 1 μl of diluted compounds were mixed for 10 min with 40 μl of cathepsin D (from human liver, Calbiochem) diluted in assay buffer (100 mM sodium acetate, 0.05% BSA, pH 5.5; final concentration: 200 nM) or with 40 μl of recombinant human cathepsin E (R&D Systems) diluted in assay buffer (100 mM sodium acetate, 0.05% BSA, pH 4.5; final concentration: 0.01 nM). After addition of 10 μl of the cathepsin D substrate […]-MR121 diluted in cathepsin D assay buffer (final concentration: 300 nM) or 10 µl of the cathepsin E substrate MR121-[…] diluted in cathepsin E assay buffer (final concentration: 300 nM), the plates were strongly shaken for 2 minutes. The enzymatic reaction was followed in a plate: vision reader (Perkin Elmer) (excitation wavelength: 630 nm; emission: 695 nm) for at least 30 minutes in a kinetic measurement detecting an increase of MR121 fluorescence during the reaction time. The slope in the linear range of the kinetic was calculated and the IC50 of the test compounds were determined using a four parameter equation for curve fitting.

BACE2 = target: T3, BACE2 (Rattus norvegicus, UniProt Q6IE75); assay: Assay for BACE inhibition by measuring cellular TMEM27 cleavage; assay type: cell-based; settings: INS-TMEM27 cells (INS1e-derived); shed TMEM27 by ELISA; read-out: BACE2 cell act. IC50
T3 construct: endogenous cellular BACE2 in the Ins1e rat cell line; endogenous in cells; host or cells: INS-TMEM27 (INS1e-derived rat cell line with TetOn-inducible full-length hTMEM27)
T3 sequence (Q6IE75 63-514): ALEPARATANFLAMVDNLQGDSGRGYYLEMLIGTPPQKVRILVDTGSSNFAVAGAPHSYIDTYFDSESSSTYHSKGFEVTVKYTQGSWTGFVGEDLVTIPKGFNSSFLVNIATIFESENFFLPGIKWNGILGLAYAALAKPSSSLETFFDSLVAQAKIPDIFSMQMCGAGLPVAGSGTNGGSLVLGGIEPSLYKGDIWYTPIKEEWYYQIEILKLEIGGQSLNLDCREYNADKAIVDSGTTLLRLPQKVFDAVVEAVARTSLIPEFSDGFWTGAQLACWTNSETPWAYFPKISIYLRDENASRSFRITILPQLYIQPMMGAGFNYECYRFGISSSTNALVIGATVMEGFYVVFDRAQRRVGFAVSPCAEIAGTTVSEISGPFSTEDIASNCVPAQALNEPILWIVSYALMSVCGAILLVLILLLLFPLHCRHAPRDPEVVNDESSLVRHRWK
Text: Assay for BACE Inhibition by Measuring Cellular TMEM27 Cleavage:
The assay uses the principle of inhibition of human TMEM27 cleavage by endogenous cellular BACE2 in the Ins1e rat cell line and shedding from the cell surface into the culture medium, followed by detection in an ELISA assay. Inhibition of BACE2 prevents the cleavage and shedding in a dose-dependent manner.
The stable cell line “INS-TMEM27” represents an INS1e-derived cell line with inducible expression (using the TetOn system) of full-length hTMEM27 in a doxycycline-dependent manner. The cells are cultured throughout the experiment in RPMI1640+Glutamax (Invitrogen) Penicillin/Streptomycin, 10% Fetal bovine serum, […] pyruvate, […] beta-mercatptoethanol, 100 micrograms/ml G418 and 100 microgram/ml hygromycin and are grown inadherent culture at 37° C. in a standard CO2 cell culture incubator. INS-TMEM27 cells are seeded in 96-well plates. After 2 days in culture, BACE2 inhibitor is added in a range of concentrations as required by the assay and after a further two hours, doxycycline is added to a final concentration of 500 ng/ml. The cells are incubated for a further 46 hours and the supernatant harvested for detection of shed TMEM27.
An ELISA assay (using a pair of mouse anti-human-TMEM27 antibodies, raised against the extracellular domain of TMEM27) is used for detection of TMEM27 in the culture medium. An EC50 for BACE2 inhibition is calculated using the ELISA readout for each inhibitor concentration with standard curve-fitting software such as XLFit for the Excel spreadsheet program.

BACE1 = target: T4, BACE1 (Homo sapiens, UniProt P56817); assay: Cellular Aβ-lowering assay (Aβ40 ELISA); assay type: cell-based; settings: HEK293 cells stably expressing human APP695; Aβ40 in culture supernatant; read-out: BACE1 cell act. Aβ40 IC50
T4 construct: Human HEK293 cells which are stably transfected with a vector expressing a cDNA of the human APP wt gene (APP695); endogenous in cells; host or cells: HEK293 stably transfected with human APP695 wt
T4 sequence (P56817 46-501): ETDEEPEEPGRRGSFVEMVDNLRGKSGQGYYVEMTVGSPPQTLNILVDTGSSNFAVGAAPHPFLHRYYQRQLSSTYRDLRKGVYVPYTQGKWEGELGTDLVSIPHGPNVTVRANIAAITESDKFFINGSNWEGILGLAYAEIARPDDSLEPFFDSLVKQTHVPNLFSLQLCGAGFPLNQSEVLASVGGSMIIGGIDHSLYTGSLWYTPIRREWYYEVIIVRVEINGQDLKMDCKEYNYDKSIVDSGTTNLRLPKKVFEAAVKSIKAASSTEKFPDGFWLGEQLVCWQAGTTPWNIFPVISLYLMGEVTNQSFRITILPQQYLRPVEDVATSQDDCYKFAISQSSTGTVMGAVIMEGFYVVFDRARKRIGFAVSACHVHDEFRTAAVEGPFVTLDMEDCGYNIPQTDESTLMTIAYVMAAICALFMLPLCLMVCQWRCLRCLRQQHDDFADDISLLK
In short: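 Aβ40 in supernatant measured by sandwich ELISA (TMB, 450 nm) and quantified against a pure Aβ peptide standard curve.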

Row | Structure (SMILES) | response vs control in vivo at 30 mg/kg (in vivo effect) [%] | IC50 [1] [nM] | IC50 [2] [nM] | IC50 (BACE2) [nM] | IC50 (BACE1) [nM]
1 | C[C@]1(c2cc(NC(=O)c3ccc(C#N)cn3)ccc2F)N=C(N)OCC1(F)F [Example 11, 5-Cyano-pyridine-2-carboxylic acid [3-((R)-2-amino-5,5-difluoro-4-methyl-5,6-dihydro-4H-[1,3]oxazin-4-yl)-4-fluoro-phenyl]-amide] | < 50 | 73000 | 69000 | 74 | –
2 | Cc1nc(C(=O)Nc2ccc(F)c([C@@]3(C)N=C(N)OCC3(F)F)c2)c(C)o1 [Example 59, 2,5-Dimethyl-oxazole-4-carboxylic acid [3-((R)-2-amino-5,5-difluoro-4-methyl-5,6-dihydro-4H-[1,3]oxazin-4-yl)-4-fluoro-phenyl]-amide] | – | – | – | 97 | 43
3 | CC1(C)OC(N)=N[C@](C)(c2cc(NC(=O)c3ccc(OC(F)F)cn3)ccc2F)C1(F)F [Example 27, 5-Difluoromethoxy-pyridine-2-carboxylic acid [3-((R)-2-amino-5,5-difluoro-4,6,6-trimethyl-5,6-dihydro-4H-[1,3]oxazin-4-yl)-4-fluoro-phenyl]-amide] | – | – | – | 5350 | 47
4 | C[C@]1(c2cc(NC(=O)c3ncccc3F)ccc2F)N=C(N)OCC1(F)F [Example 10, 3-Fluoro-pyridine-2-carboxylic acid [3-((R)-2-amino-5,5-difluoro-4-methyl-5,6-dihydro-4H-[1,3]oxazin-4-yl)-4-fluoro-phenyl]-amide] | – | – | – | 52 | 87
5 | Cc1cnc(C(=O)Nc2ccc(F)c([C@@]3(C)N=C(N)OC(C)(C)C3(F)F)c2)cn1 [Example 34, 5-Methyl-pyrazine-2-carboxylic acid [3-((R)-2-amino-5,5-difluoro-4,6,6-trimethyl-5,6-dihydro-4H-[1,3]oxazin-4-yl)-4-fluoro-phenyl]-amide] | – | – | – | 3580 | 43
6 | C[C@]1(c2cc(NC(=O)c3ccc(OCC(F)(F)F)cn3)ccc2F)N=C(N)OCC1(F)F [Example 14, 5-(2,2,2-Trifluoro-ethoxy)-pyridine-2-carboxylic acid [3-((R)-2-amino-5,5-difluoro-4-methyl-5,6-dihydro-4H-[1,3]oxazin-4-yl)-4-fluoro-phenyl]-amide] | – | – | – | 19200 | 290
7 | CC1(C)OC(N)=N[C@](C)(c2cc(NC(=O)c3cnc(C(F)(F)F)cn3)ccc2F)C1(F)F [Example 35, 5-Trifluoromethyl-pyrazine-2-carboxylic acid [3-((R)-2-amino-5,5-difluoro-4,6,6-trimethyl-5,6-dihydro-4H-[1,3]oxazin-4-yl)-4-fluoro-phenyl]-amide] | – | – | – | 4750 | 40
8 | C[C@]1(c2cc(NC(=O)c3ccc(OCC(F)F)cn3)ccc2F)N=C(N)OCC1(F)F [Example 45, 5-(2,2-Difluoro-ethoxy)-pyridine-2-carboxylic acid [3-((R)-2-amino-5,5-difluoro-4-methyl-5,6-dihydro-4H-[1,3]oxazin-4-yl)-4-fluoro-phenyl]-amide] | – | – | – | 25700 | 400
9 | C[C@]1(c2cc(NC(=O)c3cnc(Cl)cn3)ccc2F)N=C(N)OCC1(F)F [Example 47, 5-Chloro-pyrazine-2-carboxylic acid [3-((R)-2-amino-5,5-difluoro-4-methyl-5,6-dihydro-4H-[1,3]oxazin-4-yl)-4-fluoro-phenyl]-amide] | – | – | – | 34900 | 520
10 | C[C@]1(c2cc(NC(=O)c3ncc(F)cc3F)ccc2F)N=C(N)OCC1(F)F [Example 4, 3,5-Difluoro-pyridine-2-carboxylic acid [3-((R)-2-amino-5,5-difluoro-4-methyl-5,6-dihydro-4H-[1,3]oxazin-4-yl)-4-fluoro-phenyl]-amide] | – | – | – | 26 | 31
11 | C[C@]1(c2cc(NC(=O)c3ccc(C#N)cn3)cc(F)c2F)N=C(N)OCC1(F)F [Example 49, 5-Cyano-pyridine-2-carboxylic acid [3-((R)-2-amino-5,5-difluoro-4-methyl-5,6-dihydro-4H-[1,3]oxazin-4-yl)-4,5-difluoro-phenyl]-amide] | – | – | – | 151 | 26
